From ChEMBL document CHEMBL4619778, “Oligopeptides as Neuropeptide Y Y4 Receptor Ligands: Identification of a High-Affinity Tetrapeptide Agonist and a Hexapeptide Antagonist” (J Med Chem, 2020)
Bridge positions count the residues as written; N and C are the ends. Square brackets hold non-standard residues; d marks the D form. Peptide text beside a SMILES is read from it. I, II: the chains in the order shown. ξ: configuration not given here. ξOrn = NCCCC(N)C(=O)O; ξDap = NCC(N)C(=O)O

Key:
[1] = target: T1, Neuropeptide Y receptor type 4 (Homo sapiens, UniProt P50391); test: Displacement of [3H]UR-KK200 from human Y4 receptor expressed in CHO cells co-expressing Gqi5-mtAEQ measured after 90 mins by scintillation counting analysis; format: cell-based
T1 sequence (P50391 whole entry): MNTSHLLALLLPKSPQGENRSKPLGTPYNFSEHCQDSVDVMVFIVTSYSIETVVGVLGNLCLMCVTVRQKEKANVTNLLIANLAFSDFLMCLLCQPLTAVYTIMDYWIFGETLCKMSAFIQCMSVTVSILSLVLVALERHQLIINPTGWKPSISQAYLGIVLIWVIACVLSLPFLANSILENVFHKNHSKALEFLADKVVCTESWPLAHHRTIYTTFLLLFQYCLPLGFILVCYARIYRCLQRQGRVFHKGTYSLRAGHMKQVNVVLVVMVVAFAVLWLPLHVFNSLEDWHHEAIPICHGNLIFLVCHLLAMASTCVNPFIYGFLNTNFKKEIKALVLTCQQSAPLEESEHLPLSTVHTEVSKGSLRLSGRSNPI

[2] = target: T1, Neuropeptide Y receptor type 4; test: Agonist activity at human Y4R expressed in HEK293T cells co-expressing ARRB1 assessed as induction of beta-arrestin1 recruitment measured for 40 mins by D-luciferin based luminescence assay; format: cell-based, HEK-293T
[3] = target: T1, Neuropeptide Y receptor type 4; test: Agonist activity at human Y4R expressed in HEK293T cells co-expressing ARRB2 assessed as induction of beta-arrestin2 recruitment measured for 40 mins by D-luciferin based luminescence assay; format: cell-based, HEK-293T
[4] = target: T1, Neuropeptide Y receptor type 4; test: Agonist activity at human Y4 receptor expressed in CHO cells co-expressing Gqi5-mtAEQ assessed as intracellular calcium mobilization measured for 43 secs in presence of coelenterazine by aequorin-reporter gene based luminescence assay; format: functional, cell-based
[5] = target: T2, Neuropeptide Y receptor type 1 (Homo sapiens, UniProt P25929); test: Displacement of [3H]UR-MK299 from Y1 receptor in human SK-N-MC cells; format: cell-based
T2 sequence (P25929 whole entry): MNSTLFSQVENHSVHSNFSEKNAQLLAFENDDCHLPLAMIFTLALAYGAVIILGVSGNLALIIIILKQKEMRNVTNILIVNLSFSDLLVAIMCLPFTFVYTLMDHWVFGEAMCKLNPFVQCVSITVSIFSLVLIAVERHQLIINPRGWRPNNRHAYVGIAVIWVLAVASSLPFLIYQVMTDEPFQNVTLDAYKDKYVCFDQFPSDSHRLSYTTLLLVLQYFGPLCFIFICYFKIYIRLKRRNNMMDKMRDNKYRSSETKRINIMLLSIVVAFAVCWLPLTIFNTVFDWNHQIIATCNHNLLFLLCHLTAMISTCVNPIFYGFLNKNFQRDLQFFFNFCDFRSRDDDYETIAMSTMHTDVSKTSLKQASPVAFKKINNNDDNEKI

[6] = target: T3, Neuropeptide Y receptor type 2 (Homo sapiens, UniProt P49146); test: Displacement of [3H]propionyl-pNPY from human Y2 receptor expressed in CHO cells measured after 2 hrs by microbeta liquid scintillation counting analysis; format: cell-based
T3 sequence (P49146 whole entry): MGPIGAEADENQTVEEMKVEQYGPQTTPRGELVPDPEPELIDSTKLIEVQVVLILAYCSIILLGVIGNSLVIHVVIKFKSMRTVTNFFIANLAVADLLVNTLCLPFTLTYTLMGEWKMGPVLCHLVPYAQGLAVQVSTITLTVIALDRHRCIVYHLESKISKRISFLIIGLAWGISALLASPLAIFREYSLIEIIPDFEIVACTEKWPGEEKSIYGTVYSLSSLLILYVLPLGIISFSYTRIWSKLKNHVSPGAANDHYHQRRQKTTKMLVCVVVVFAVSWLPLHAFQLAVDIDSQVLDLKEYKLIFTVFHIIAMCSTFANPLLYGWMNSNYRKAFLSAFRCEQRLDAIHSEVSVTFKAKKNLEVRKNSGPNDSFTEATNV

[7] = target: T4, Neuropeptide Y receptor type 5 (Homo sapiens, UniProt Q15761); test: Displacement of [3H]propionyl-pNPY from human Y5 receptor expressed in human HEC1B cells; format: cell-based
T4 sequence (Q15761 whole entry): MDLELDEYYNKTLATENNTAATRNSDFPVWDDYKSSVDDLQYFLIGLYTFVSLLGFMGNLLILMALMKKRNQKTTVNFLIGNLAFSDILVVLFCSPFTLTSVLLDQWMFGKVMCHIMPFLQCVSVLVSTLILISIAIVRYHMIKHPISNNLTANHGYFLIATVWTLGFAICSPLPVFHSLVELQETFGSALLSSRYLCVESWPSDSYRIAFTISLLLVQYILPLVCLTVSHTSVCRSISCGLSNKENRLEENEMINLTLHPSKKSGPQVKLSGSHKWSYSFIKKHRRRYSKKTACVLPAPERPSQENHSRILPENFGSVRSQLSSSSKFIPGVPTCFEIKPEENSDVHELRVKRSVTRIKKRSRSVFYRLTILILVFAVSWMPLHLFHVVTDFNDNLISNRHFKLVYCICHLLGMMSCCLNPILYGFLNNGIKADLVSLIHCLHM

Homo sapiens [8] = species on record: Homo sapiens; test: Selectivity ratio of Ki for displacement of [3H]UR-MK299 from Y1 receptor in human SK-N-MC cells to Ki for displacement of [3H]UR-KK200 from human Y4 receptor expressed in CHO cells co-expressing Gqi5-mtAEQ; format: cell-based
Homo sapiens [9] = species on record: Homo sapiens; test: Selectivity ratio of Ki for displacement of [3H]propionyl-pNPY from human Y2 receptor expressed in CHO cells to Ki for displacement of [3H]UR-KK200 from human Y4 receptor expressed in CHO cells co-expressing Gqi5-mtAEQ; format: cell-based
Homo sapiens [10] = species on record: Homo sapiens; test: Selectivity ratio of Ki for displacement of [3H]propionyl-pNPY from human Y5 receptor expressed in human HEC1B cells to Ki for displacement of [3H]UR-KK200 from human Y4 receptor expressed in CHO cells co-expressing Gqi5-mtAEQ; format: cell-based

Row | Compound | Ki ([1]; read-out: Ki) [nM] | EC50 ([2]; read-out: EC50) [nM] | EC50 ([2]; read-out: pEC50 (converted)) [nM] | EC50 ([3]; read-out: EC50) [nM] | EC50 ([3]; read-out: pEC50 (converted)) [nM] | EC50 ([4]; read-out: EC50) [nM] | EC50 ([4]; read-out: pEC50 (converted)) [nM] | Ki ([1]; read-out: pKi (converted)) [nM] | Ki ([5]; read-out: pKi (converted)) [nM] | Ki ([5]; sk-n-mc, read-out: Ki) [nM] | Ki ([6]; cho, read-out: Ki) [nM] | Ki ([6]; read-out: pKi (converted)) [nM] | Ki ([7]; read-out: Ki) [nM] | Ki ([7]; read-out: pKi (converted)) [nM] | Ratio Ki (Homo sapiens [8]) | Ratio Ki (Homo sapiens [9]) | Ratio Ki (Homo sapiens [10]) | Ki ([5]; read-out: Ki) [nM] | Ki ([6]; read-out: Ki) [nM]
1 | H-RYRGRY-NH2 | 190 | > 30000 | > 31600 | > 30000 | > 31600 | > 30000 | > 31600 |  |  |  |  |  |  |  |  |  |  |  | 
2 | Ac-RFRLRY-NH2 | 8.9 | 550 |  | 320 |  | 550 |  | 8.71 | > 1000 | > 1000 | > 10000 | > 10000 | > 1000 | > 1000 | > 110 | > 1100 | > 110 |  | 
3 | CC(C)C[C@H](NC(=O)[C@H](CCCNC(=N)N)NC(=O)[C@H](Cc1ccc(O)cc1)NC(=O)[C@@H](N)CCCNC(=N)N)C(=O)N[C@@H](CCCNC(N)=O)C(=O)N[C@@H](Cc1ccc(O)cc1)C(N)=O | 63 | 1070 |  | 930 |  |  |  | 56.2 | > 3160 |  |  |  |  |  | > 48 |  |  | > 3000 | 
4 | CC(=O)N[C@@H](CCCNC(=N)N)C(=O)NC(CCCN)C(=O)NCC(=O)N[C@@H](Cc1c[nH]c2ccccc12)C(=O)N[C@@H](CCCNC(=N)N)C(=O)N[C@@H](CC(C)C)C(=O)N[C@@H](CCCNC(=N)N)C(=O)N[C@@H](Cc1ccc(O)cc1)C(N)=O (stereo partly specified) (Ac-R[ξOrn]GWRLRY-NH2) | 4.3 | 170 |  | 140 |  | 230 |  |  | > 1000 | > 1000 | > 1000 | > 1000 | > 1000 | > 1000 | > 230 | > 230 | > 230 |  | 
5 | Ac-RYRPRY-NH2 | 1800 | > 30000 | > 31600 | > 30000 | > 31600 | > 30000 | > 31600 |  |  |  |  |  |  |  |  |  |  |  | 
6 | CC(C)C[C@H](NC(=O)[C@@H](N)CCCNC(=N)N)C(=O)N[C@H](CCCNC(=N)N)C(=O)N[C@@H](Cc1ccc(O)cc1)C(N)=O | 1300 | > 30000 | > 31600 | > 30000 | > 31600 |  |  |  |  |  |  |  |  |  |  |  |  |  | 
7 | CC(=O)N[C@@H](CCCNC(=N)N)C(=O)N[C@@H](Cc1ccc(O)cc1)C(=O)N[C@@H](CCCNC(=N)N)C(=O)N[C@@H](CC(C)C)C(=O)N[C@@H](CCCNC(=N)N)C(=O)N[C@@H](Cc1ccc(O)cc1)C(N)=O | 3.4 to 3.6 | 170 | 162 | 120 | 112 | 190 | 182 | 3.72 |  |  |  |  | > 3000 |  | > 830 | > 830 | > 830 | > 3000 | > 3000
8 | CC(C)C[C@H](NC(=O)[C@@H](N)CCCNC(=N)N)C(=O)N[C@@H](CCCNC(=N)N)C(=O)N[C@H](Cc1ccc(O)cc1)C(N)=O | 1500 | > 30000 | > 31600 | > 30000 | > 31600 |  |  |  |  |  |  |  |  |  |  |  |  |  | 
9 | CC(=O)N[C@@H](CCCNC(=N)N)C(=O)N[C@@H](Cc1c[nH]c2ccccc12)C(=O)N[C@@H](CCCNC(=N)N)C(=O)N[C@@H](CC(C)C)C(=O)N[C@@H](CCCNC(=N)N)C(=O)N[C@@H](Cc1ccc(O)cc1)C(N)=O | 1.4 | 67 |  | 35 |  | 120 |  |  | > 1000 | > 1000 | > 1000 | > 1000 | > 1000 | > 1000 | > 710 | > 710 | > 710 |  | 
10 | CN[C@@H](CCCNC(=N)N)C(=O)N[C@@H](CC(C)C)C(=O)N[C@@H](CCCNC(=N)N)C(=O)N[C@@H](Cc1ccc(O)cc1)C(N)=O | 3.9 | 2500 |  | 1200 |  |  |  |  | > 3160 |  | > 1000 | > 1000 | > 10000 | > 10000 | > 770 | > 260 | > 2600 | > 3000 | 
11 | Ac-RGYRLRW-NH2 | 38 | 520 |  | 360 |  | 380 |  | 30.9 | > 1000 | > 1000 | > 1000 | > 1000 | > 1000 | > 1000 | > 26 | 26 | > 26 |  | 
12 | N=C(N)NCCC[C@H](NC(=O)[C@H](Cc1c[nH]c2ccccc12)NC(=O)[C@@H](N)CCCNC(=N)N)C(=O)N[C@@H](Cc1ccc(O)cc1)C(N)=O (H-RWRY-NH2) | 350 | > 30000 | > 31600 | > 30000 | > 31600 | > 30000 | > 31600 |  |  |  |  |  |  |  |  |  |  |  | 
13 | CC(=O)N[C@@H](CCCNC(=N)N)C(=O)N[C@@H](Cc1ccc(O)cc1)C(=O)N[C@@H](CCCNC(N)=O)C(=O)N[C@@H](CC(C)C)C(=O)N[C@@H](CCCNC(=N)N)C(=O)N[C@@H](Cc1ccc(O)cc1)C(N)=O | 120 | > 30000 | > 31600 | > 30000 | > 31600 | > 30000 | > 31600 |  |  |  |  |  |  |  |  |  |  |  | 
14 | H-RYRARY-NH2 | 240 | > 30000 | > 31600 | > 30000 | > 31600 | > 30000 | > 31600 | 229 |  |  |  |  |  |  |  |  |  |  | 
15 | CC(C)C[C@H](NC(=O)[C@H](N)CCCNC(=N)N)C(=O)N[C@@H](CCCNC(=N)N)C(=O)N[C@@H](Cc1ccc(O)cc1)C(N)=O | 7.4 | 2400 |  | 4800 | 4680 |  |  |  |  |  |  |  |  |  |  |  |  |  | 
16 | CC(C)C[C@@H](NC(=O)[C@@H](N)CCCNC(=N)N)C(=O)N[C@@H](CCCNC(=N)N)C(=O)N[C@@H](Cc1ccc(O)cc1)C(N)=O | 93 | > 30000 | > 31600 | > 30000 | > 31600 |  |  |  |  |  |  |  |  |  |  |  |  |  | 
17 | CC[C@H](C)[C@H](N)C(=O)N[C@H]1CCC(=O)NCC(C(=O)N[C@@H](Cc2ccc(O)cc2)C(=O)N[C@@H](CCCNC(=N)N)C(=O)N[C@@H](CC(C)C)C(=O)N[C@@H](CCCNC(=N)N)C(=O)N[C@@H](Cc2ccc(O)cc2)C(N)=O)NC(=O)[C@@H]2CCCN2C(=O)[C@@H](NC(=O)[C@@H](N)[C@@H](C)CC)CCC(=O)NCC(C(=O)N[C@@H](Cc2ccc(O)cc2)C(=O)N[C@@H](CCCNC(=N)N)C(=O)N[C@@H](CC(C)C)C(=O)N[C@@H](CCCNC(=N)N)C(=O)N[C@@H](Cc2ccc(O)cc2)C(N)=O)NC(=O)[C@@H]2CCCN2C1=O (stereo partly specified) (I: H-IEP[ξDap]YRLRY-NH2 / II: H-IEP[ξDap]YRLRY-NH2; amide I:2-II:4, I:4-II:2) | 0.36 |  |  |  |  |  |  |  |  |  |  |  |  |  |  |  |  |  | 
18 | CC(C)C[C@H](NC(=O)[C@H](CCCNC(=N)N)NC(=O)[C@H](Cc1ccc(O)cc1)NC(=O)[C@@H](N)CCCNC(N)=O)C(=O)N[C@@H](CCCNC(=N)N)C(=O)N[C@@H](Cc1ccc(O)cc1)C(N)=O | 4.8 | 100 |  | 150 |  |  |  | 4.47 | > 3160 |  |  | > 3160 | > 10000 | > 10000 | > 630 | > 630 | > 2100 | > 3000 | > 3000
